Measured values taken from patent publication US11472846B2, “Compositions and methods for treating diseases by inhibiting exosome release” (priority 2016, dated 2022).
“Also recorded” adds a separate entry of the source. Where two headings read alike, the source gives them in different places.

Tests used:
Type in all cases: cell-based, human
[1] = test system: MCF-7 breast cancer cells; experiment: MTT proliferation assay, MCF-7; settings: MCF-7 cells, 24 hours
Method: (§1) 1-3. Viability and proliferation. Human breast cancer cell lines were seeded into 96-well plates (5000 cells/well) and treated for 24 hours with various concentrations of SMR peptides including PEG-SMRwt-Clu, PEG-SMRwt and PEG-SMRmut to determine IC50 (inhibition concentration). Cell proliferation was determined using the MTT assay (Molecular Devices, Sunnyvale, Calif.). Control experiments were performed with MTT treated cells alone and untreated cells, and on this basis, the incubation times of 24 hr and 48 hr were used for an MTT assay of peptide-treated cells (Stockerta JC. et al., 2012 and Riss TL. et al., 2015).
(§2) 7-4. Cell proliferation and cytotoxicity assay. Human breast cancer cell lines MCF-7, MDAMB-231, and leukemia K562 cells, and non-tumorigenic MCF-10A cells are seeded into 96-well plates (5000 cells/well) and treated for 24 hours with 0-1120 nM SMRwt-CPP or SMRmut-CPP (FIG. 10). Cell proliferation was determined using the MTT [3-(4,5-dimethylthiazol-2-yl)-2,5-diphenyltetrazolium bromide] dye assay by SpectraMax M5 Fluorescence Plate Reader (Molecular Devices. Sunnyvale, Calif.). Cell viability was estimated by the conversion of yellow MTT by mitochondrial dehydrogenases of living cells to purple formazon (MTT assay). Control experiments were performed with cells treated or untreated with MTT, and on this basis, an incubation time of 24 hours was used for MTT assays of peptide-treated cells (Huang, M. B., et al., Oncotarget, 2017. 8(7): pp. 11302-11315.). Statistical significance of results was determined from three independent experiments including triplet or quadruplet sets in each experiment.

[2] = test system: MDA-MB-231 breast cancer cells; experiment: MTT proliferation assay, MDA-MB-231; settings: MDA-MB-231 cells, 24 hours
Method: as §1, §2

[3] = test system: MCF-7 breast cancer cells; experiment: Propidium iodide cell cycle analysis (Cellometer), MCF-7; settings: MCF-7 cells, 48 hours, 1.12 μM/mL peptide
Method: (§3) 1-4. Cell cycle analysis. MCF-7 and MDA-MB-231 breast cancer cells were cultured into 6-well plates at 4×10^5 cells per well and treated with either paclitaxel and cisplatin or combined with PEG-SMRwt-CLU peptide for 24 and 48 hours. Cell cycle analysis was performed using a propidium iodide cell cycle assay and measured using a Cellometer (Nexcelom, MA). […] Breast cancer cells were seeded into 96-well plates at 5×10^3 cells/ml, and treated with either 1.6 μM//mL of paclitaxel, or 3 mg/mL cisplatin, 1.12 μM/mL PEG-SMRwt-CLU peptide, SMR peptide combined with paclitaxel or with cisplatin (MCF-7 cells). Alternatively 1.6 μM/mL paclitaxel or 2 mg/mL cisplatin or 0.28 μM/mL of PEG-SMR-CLU peptide, or the peptide combined with each of these drugs was used for MDA-MB-231 cells. The concentrations for cisplatin and paclitaxel were experimentally determined IC50 dosages for the different cell types (data not shown). At the end of the 24 hr or 48 hr incubations, the cells were assessed by the Cellometry imaging cytometry assay.
(§4) All above steps were done on MCF-7 and MDA-MB-231 cells separately. […]

[4] = test system: MDA-MB-231 breast cancer cells; experiment: Propidium iodide cell cycle analysis (Cellometer), MDA-MB-231; settings: MDA-MB-231 cells, 48 hours, 0.28 μM/mL peptide
Method: as §3, §4

[5] = test system: MCF-7 breast cancer cells; experiment: Annexin V-FITC/PI apoptosis assay, MCF-7; settings: MCF-7 cells, 48 hours
Method: 1-5. Assessment of apoptosis. Breast cancer cells were seeded into 6-well plates at 4×10^5 cells per well and treated with either paclitaxel or cisplatin or various concentrations of SMR peptides for 24 hours or different time point. SMR as described above. Apoptosis was determined the using Annexin V-FITC detection kit (Nexcelom, MA) and visualized by Cellometer imaging cytometry.

[6] = test system: MCF-7 breast cancer cells; experiment: Exosome nanoparticle tracking analysis (NanoSight NTA), MCF-7; settings: MCF-7 cells treated 48 hr; untreated control 5.16×10^9 particles/ml
Method: (§5) 1-6. Exosome isolation and purification. Exosomes were isolated from breast cancer cells by differential centrifugation as previously described (Ali SA. et al., 2010). Untreated tumor cells were used as a control. Briefly, the above treated and untreated cell culture supernatants were centrifuged at 400×g for 10 minutes. The supernatants were transferred to a clear tube and centrifuged at 10,000×g for 30 minutes. The supernatants from the second spin were ultracentrifuged at 200,000×g for 2 hours to pellet exosomes. Finally, the exosome pellets were re-suspended with PBS and stored at 4° C. until used for analysis.
(§6) 1-8. Exosome nanoparticle tracking analysis (NTA). Analysis of absolute size distribution of exosomes was performed using NanoSight LM10 with NTA2.3 (NanoSight Ltd., Minton Park, UK). Particles were automatically tracked and sized based on Brownian motion and the diffusion coefficient. After isolation, the untreated and treated breast cancer exosomes were re-suspended in 0.5 mL of PBS. Control medium and filtered PBS were used as controls in this technique. The NTA measurement conditions were: temperature=21.0+/−0.5° C.; viscosity=0.99+/−0.01 cP; frames per second=25; measurement time=30 s. The detection threshold was similar in all samples. Two recordings were performed for each sample.
(§7) 7-11. Exosome nanoparticle tracking analysis (NTA). […]

[7] = test system: MDA-MB-231 breast cancer cells; experiment: Exosome nanoparticle tracking analysis (NanoSight NTA), MDA-MB-231; settings: MDA-MB-231 cells treated 48 hr; control 4.7×10^9 particles/ml
Method: as §5, §6, §7

[8] = test system: non-tumorigenic MCF-10A cells; experiment: MTT proliferation assay, MCF-10A; settings: 24 hours, up to 1120 nM/mL
Method: as §1
as §2, with “Control experiments were performed with cells treated or untreated with MTT, and on this basis, an incubation time of 24 hours was used for MTT assays of peptide-treated cells (Huang, M. B., et al., Oncotarget, 2017. 8(7): pp. 11302-11315.).” left out

[9] = MTT, read-out: 50% inhibition of cell growth
[10] = read-out: SMR at IC50 concentration

| Sequence | IC50 [1, 9] | IC50 [1, 10] | IC50 [2, 9] | IC50 [2, 10] | cell cycle effect [3] | cell cycle effect [4] | effect on paclitaxel/cisplatin-induced apoptosis [5] | number of exosome particles (NTA) [6] | number of exosome particles (NTA) [7] | effect on proliferation (in words) [8] |
| --- | --- | --- | --- | --- | --- | --- | --- | --- | --- | --- |
| NXNVGFPVAAVGFPVHPLSKHPYWSQP (SEQ ID NO: 37) [PEG-SMRwt-Clu] | 1120 nM | 1120 nM | 280 nM | 280 nM | induced cell cycle arrest | induced cell cycle arrest | increased the level of drug-induced apoptosis | 3.28×10^8 particles/ml | 6.8×10^8 particles/ml | – |
| VGFPVAAVGFPVGRKKRRQRRRPPQ [SMRwt-CPP] | – | – | – | – | – | – | – | – | – | not affected; also recorded: no effect |
